Results published in ChEMBL document CHEMBL1201862, “PubChem BioAssay data set” (2004).
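How tested: cells in 96-well plates exposed to compound for 48 hours at five concentrations. At the GI50, growth is halved.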 Activity calls are given as the source filed them. No stated cut-off is given here; in the data, active = GI50 up to about 1.1 µM and inactive = higher.

Experiments:
Assay in all cases: NCI anticancer screen, dose series, 48 h
[1] = test system: IGROV-1
[2] = test system: OVCAR-3
[3] = test system: LOX IMVI
[4] = test system: DU-145
[5] = test system: CCRF-CEM
[6] = test system: SNB-19
[7] = test system: SF-268
[8] = test system: TK-10
[9] = test system: SF-295
[10] = test system: T47D
[11] = test system: MCF7
[12] = test system: U-251
[13] = test system: UACC-257
[14] = test system: A549
[15] = test system: Hs-578T
[16] = test system: HOP-62
[17] = test system: EKVX
[18] = test system: SF-539
[19] = test system: K562

Structure (SMILES) | GI50 [1] | GI50 [2] | GI50 [3] | GI50 [4] | GI50 [5] | GI50 [6] | GI50 [7] | GI50 [8] | GI50 [9] | GI50 [10] | GI50 [11] | GI50 [12] | GI50 [13] | GI50 [14] | GI50 [15] | GI50 [16] | GI50 [17] | GI50 [18] | GI50 [19]
CN(C)c1ncnc2c1ncn2CCn1cnc2c(N(C)C)ncnc21 | > 100 µM (inactive) | > 100 µM (inactive) | > 100 µM (inactive) | > 100 µM (inactive) | > 100 µM (inactive) | > 100 µM (inactive) | > 100 µM (inactive) | > 100 µM (inactive) | > 100 µM (inactive) | > 100 µM (inactive) | > 100 µM (inactive) | > 100 µM (inactive) | > 100 µM (inactive) | > 100 µM (inactive) | > 100 µM (inactive) | > 100 µM (inactive) | > 100 µM (inactive) | > 100 µM (inactive) | 
CC(C)(C)CNCCO | > 100 µM (inactive) | > 100 µM (inactive) | > 100 µM (inactive) | > 100 µM (inactive) | > 100 µM (inactive) | > 100 µM (inactive) | > 100 µM (inactive) | > 100 µM (inactive) | > 100 µM (inactive) | > 100 µM (inactive) | > 100 µM (inactive) | > 100 µM (inactive) | > 100 µM (inactive) | > 100 µM (inactive) | > 100 µM (inactive) | > 100 µM (inactive) | > 100 µM (inactive) | > 100 µM (inactive) | 
O=C(O)C1C2OC(C(Br)C2Br)C1C(=O)O (centres undefined) | > 100 µM (inactive) | > 100 µM (inactive) | > 100 µM (inactive) | > 100 µM (inactive) |  | > 100 µM (inactive) | > 100 µM (inactive) | > 100 µM (inactive) | > 100 µM (inactive) | > 100 µM (inactive) | > 100 µM (inactive) | > 100 µM (inactive) | > 100 µM (inactive) | > 100 µM (inactive) | 24.7 µM (inactive) | > 100 µM (inactive) | > 100 µM (inactive) | > 100 µM (inactive) | > 100 µM (inactive)
CC[C@@]1(O)C(=O)OCc2c1cc1n(c2=O)Cc2c-1nc1ccccc1c2/C=N\NC(=O)C(N)CS (some centres undefined) | 6.7 µM (inactive) | 13.2 µM (inactive) | 0.454 µM (active) | 0.435 µM (active) | 0.0446 µM (active) | 0.571 µM (active) | 0.186 µM (active) | > 84.9 µM (inactive) | 0.501 µM (active) | 0.1 µM (active) | 0.206 µM (active) | 0.281 µM (active) | 7.26 µM (inactive) | 2 µM (inactive) | > 100 µM (inactive) | 0.295 µM (active) | 47 µM (inactive) | 0.249 µM (active) | 1.5 µM (inactive)
C=CCCC(=O)CC(O)(C(F)(F)F)C(F)(F)F | > 100 µM (inactive) | > 100 µM (inactive) | > 100 µM (inactive) | > 100 µM (inactive) | > 100 µM (inactive) | > 100 µM (inactive) |  | > 100 µM (inactive) | > 100 µM (inactive) | > 100 µM (inactive) | > 100 µM (inactive) | > 100 µM (inactive) | > 100 µM (inactive) | > 100 µM (inactive) | > 100 µM (inactive) |  | > 100 µM (inactive) | > 100 µM (inactive) | > 100 µM (inactive)
Brc1ccc2c3c1[C@@H]1O[C@@H]1c1cccc(c1-3)[C@@H]1O[C@H]21 |  | 19.9 µM (inactive) | 2.21 µM (inactive) | 24.9 µM (inactive) | 5.09 µM (inactive) | 22.3 µM (inactive) | 24.2 µM (inactive) | 41 µM (inactive) | 19.2 µM (inactive) | 15.4 µM (inactive) | 9.08 µM (inactive) | 17.6 µM (inactive) | 28.4 µM (inactive) | 26.1 µM (inactive) | 29.9 µM (inactive) | 19.5 µM (inactive) | 19.6 µM (inactive) | 2.32 µM (inactive) | > 39.9 µM (inactive)
c1ccc(C2=Nn3c(CCCCCCCCc4nnc5n4N=C(c4ccccc4)CS5)nnc3SC2)cc1 | > 100 µM (inactive) | > 100 µM (inactive) | 45.4 µM (inactive) | > 100 µM (inactive) | 22.6 µM (inactive) | 18.4 µM (inactive) | 23.1 µM (inactive) | 29.2 µM (inactive) | 20.1 µM (inactive) | > 92.9 µM (inactive) | > 100 µM (inactive) | 15.6 µM (inactive) | > 100 µM (inactive) | > 100 µM (inactive) | 21.1 µM (inactive) | 17.4 µM (inactive) | 76.2 µM (inactive) | 3.45 µM (inactive) | 33.3 µM (inactive)
C=CCSc1nn(CC=C)cc2ncnc1-2 | > 100 µM (inactive) | > 100 µM (inactive) |  | > 100 µM (inactive) | > 100 µM (inactive) | > 100 µM (inactive) | > 100 µM (inactive) | > 100 µM (inactive) | > 100 µM (inactive) | > 100 µM (inactive) | > 100 µM (inactive) | > 100 µM (inactive) | > 100 µM (inactive) | > 100 µM (inactive) | > 100 µM (inactive) | > 100 µM (inactive) | > 100 µM (inactive) | > 100 µM (inactive) | > 100 µM (inactive)
N#Cc1ccc(OCc2nc3cc(C(F)(F)F)ccc3nc2-c2ccccc2)cc1 | > 100 µM (inactive) | > 100 µM (inactive) | > 100 µM (inactive) | > 100 µM (inactive) | 57.7 µM (inactive) | > 100 µM (inactive) | > 100 µM (inactive) | > 100 µM (inactive) | > 100 µM (inactive) | > 100 µM (inactive) | > 100 µM (inactive) | > 100 µM (inactive) | > 100 µM (inactive) | > 100 µM (inactive) | > 100 µM (inactive) | > 100 µM (inactive) | 41.2 µM (inactive) | > 100 µM (inactive) | 
c1ccc(C2C3=C(CCCC3)Nc3nc4cc5ccccc5cc4n32)cc1 (centres undefined) | > 100 µM (inactive) | > 100 µM (inactive) | > 100 µM (inactive) | > 100 µM (inactive) | > 100 µM (inactive) | > 100 µM (inactive) | > 100 µM (inactive) |  | > 100 µM (inactive) | > 100 µM (inactive) | > 100 µM (inactive) | > 100 µM (inactive) | > 100 µM (inactive) | > 100 µM (inactive) | > 100 µM (inactive) |  | > 100 µM (inactive) | > 100 µM (inactive) | > 100 µM (inactive)
COc1cccc2c1-c1ccccc1[C@H](Nc1ccccc1)[C@@]2(C)O |  | 2.7 µM (inactive) | 10.1 µM (inactive) | 5.3 µM (inactive) | 1.42 µM (inactive) | 5.81 µM (inactive) | 5.71 µM (inactive) | 8.87 µM (inactive) | 4.13 µM (inactive) | 8.85 µM (inactive) | 4.34 µM (inactive) | 4.84 µM (inactive) | 6.11 µM (inactive) | 7.5 µM (inactive) | 4.97 µM (inactive) | 3.85 µM (inactive) | 11 µM (inactive) | 2.77 µM (inactive) | 3.31 µM (inactive)
COc1ccc(-c2cc(-c3cc4cc(Br)ccc4nc3Cl)c(C#N)c(N)n2)cc1 | > 12.5 µM (inactive) | > 12.5 µM (inactive) | > 12.5 µM (inactive) | > 12.5 µM (inactive) | > 12.5 µM (inactive) | > 12.5 µM (inactive) | > 12.5 µM (inactive) |  | > 12.5 µM (inactive) | > 12.5 µM (inactive) | > 12.5 µM (inactive) |  |  | > 12.5 µM (inactive) | > 12.5 µM (inactive) | > 12.5 µM (inactive) | > 12.5 µM (inactive) | > 12.5 µM (inactive) | > 12.5 µM (inactive)
COc1ccc(CNc2nc3ccccc3nc2C(=O)O)cc1OC | > 100 µM (inactive) | > 100 µM (inactive) | > 100 µM (inactive) | > 100 µM (inactive) | > 100 µM (inactive) |  | > 100 µM (inactive) | > 100 µM (inactive) | > 100 µM (inactive) | > 100 µM (inactive) | > 100 µM (inactive) | 97.7 µM (inactive) | > 100 µM (inactive) | > 100 µM (inactive) | > 100 µM (inactive) | > 100 µM (inactive) | > 100 µM (inactive) | > 100 µM (inactive) | > 100 µM (inactive)
COc1ccc(N2C(=O)C3c4[nH]c5ccccc5c4C4CCC(C(C)(C)C)CC4C3C2=O)c(C)c1 (centres undefined) | > 100 µM (inactive) | > 100 µM (inactive) |  | > 100 µM (inactive) | > 100 µM (inactive) | > 100 µM (inactive) | > 100 µM (inactive) | > 100 µM (inactive) | > 100 µM (inactive) | > 100 µM (inactive) | > 100 µM (inactive) | > 100 µM (inactive) | > 100 µM (inactive) | > 100 µM (inactive) | 51.3 µM (inactive) | > 100 µM (inactive) | > 100 µM (inactive) | > 100 µM (inactive) | > 100 µM (inactive)
COc1cc2c(cc1OC)-c1[nH]c3ccc([N+](=O)[O-])cc3c1CC(=O)N2 | 2.39 µM (inactive) | 0.726 µM (active) | 1.55 µM (inactive) | 1.68 µM (inactive) | 0.975 µM (active) | 6.84 µM (inactive) | 0.881 µM (active) | 2.37 µM (inactive) | 3.53 µM (inactive) | 7.28 µM (inactive) | 3.59 µM (inactive) | 3.32 µM (inactive) | 8.49 µM (inactive) | 2.46 µM (inactive) | 0.2 µM (active) | 3.1 µM (inactive) | 5.87 µM (inactive) | 0.316 µM (active) | 1.3 µM (inactive)
